Assay [1] concerns GFP-ER (human estrogen receptor). As to the kind of experiment: Ligand effect on nuclear localization of GFP-ER in MCF7 cells. The format is cell-based. The following applies: GFP-ER already partially activated by medium. The protocol:
GFP-fusion plasmids of the invention are tested for expression and subcellular localization by transfection into several mammalian cells. For example, GFP-GR plasmids were analyzed in C127 (mouse) cells, HeLa (human cervical cancer) cells, and MCF7 (human breast adenocarcinoma) cells (ATCC accession number HTB22). GFP-ER plasmids were analyzed in 1471.1 cells, C127 (mouse) cells, MCF7 (human breast adenocarcinoma) cells, and MDA-MB-231 (human breast adenocarcinoma) cells (ATCC accession number HTB 26). Localization is observed in the absence of added hormone in either-5% or 10% charcoal-stripped fetal calf serum. Cells having GFP-fusion plasmids are then treated with a selected ligand, and subcellular localization and quantitative observations are made.
Assay for Ligand Effects: GFP-fusion plasmids of the invention are assayed for effects of a selected ligand on subcellular localization by transfection into selected cells. C127 (mouse) cells, HeLa (human cervical cancer) cells, and MCF7 (human breast adenocarcinoma) cells (ATCC accession number HTB22) were each transfected with GFP-GR plasmids and with GFP-ER plasmids. Localization is first observed in the absence of added hormone in either 5% or 10% charcoal-stripped fetal calf serum. Cells having GFP-fusion plasmids are then treated with a selected ligand, and subcellular localization and quantitative observations are made. […]

In assay [2] the test system is GR. As to conditions: cited from earlier work.

This is an account of results in patent US8058395B2, “Chimeric protein comprising a green fluorescent ptotein fused to a transcription factor” (The United States of America as represented by the …, priority 1995, dated 2011).

Turning to `C[C@]12CC[C@@H]3c4ccc(O)cc4CC[C@H]3[C@@H]1CC[C@@H]2O` [17-β-estradiol], the “nuclear GFP-ER signal after addition of agonist” value in assay [1] is “further concentration of nuclear signals on nuclear structures”. Also, in assay [2], the “affinity for GR” value is “no affinity”.
